# Results reported in patent US9833497B2, “Human originated EGF domain proteins and use of the same” (CHENGDU SOURCEBIO LIMITED-LIABILITY COMPANY, priority 2013, dated 2017).
# Experiments:
# Format in all cases: cell-based
# E. coli DH5α = experiment: Antibacterial activity: MIC and growth curve against E. coli DH5α in 96-well plate; conditions: minimal inhibitory concentration against E. coli DH5α; 96-well plate, 5×10^5 CFU/mL, 37° C., judged after 8 h
# Procedure, shortened: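 Log-phase DH5α (OD600 about 0.5, 37° C, 185 rpm in LB) was pelleted, resuspended in fresh LB and seeded at 5×10^5 CFU/mL with recombinant protein at 50, 25 and 12.5 μg/mL (two-fold series), in triplicate. Plates were shaken at 175 rpm, 37° C, and OD600 was read every 30 min. MIC was the lowest concentration with no growth.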
# E. coli BL21 = experiment: MIC against Gram-negative bacteria: E. coli BL21; conditions: 5×10^5 CFU/mL
# Procedure, shortened: (§1)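 Bacteria grown in LB at 37° C to McFarland 0.5, resuspended and seeded at 5×10^5 CFU/mL in 96-well plates. Purified human EGF-domain proteins two-fold serially diluted, triplicate wells; cultured at 37° C, shaking 175 rpm. MIC = lowest protein concentration with no growth.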
# Pseudomonas aeruginosa = experiment: MIC against Gram-negative bacteria: Pseudomonas aeruginosa; conditions: 5×10^5 CFU/mL; for MIC against P. aeruginosa: Pseudomonas aeruginosa
# Procedure, shortened: as §1
# Klebsiella pneumonia = experiment: MIC against Gram-negative bacteria: Klebsiella pneumonia; conditions: 5×10^5 CFU/mL; for MIC against K. pneumonia: Klebsiella pneumonia
# Procedure, shortened: as §1
# Enterobacter cloacae = experiment: MIC against Gram-negative bacteria: Enterobacter cloacae; conditions: 5×10^5 CFU/mL; for MIC against E. cloacae: Enterobacter cloacae
# Procedure, shortened: as §1
# Aeromonas hydrophila = experiment: MIC against Gram-negative bacteria: Aeromonas hydrophila; conditions: 5×10^5 CFU/mL; for MIC against A. hydrophila: Aeromonas hydrophila
# Procedure, shortened: as §1
# Citrobacter diversus = experiment: MIC against Gram-negative bacteria: Citrobacter diversus; conditions: 5×10^5 CFU/mL; for MIC against C. diversus: Citrobacter diversus
# Procedure, shortened: as §1
# Moraxella catarrhalis = experiment: MIC against Gram-negative bacteria: Moraxella catarrhalis; conditions: 5×10^5 CFU/mL; for MIC against M. catarrhalis: Moraxella catarrhalis
# Procedure, shortened: as §1
# Proteus mirabilis = experiment: MIC against Gram-negative bacteria: Proteus mirabilis; conditions: 5×10^5 CFU/mL; for MIC against P. mirabilis: Proteus mirabilis
# Procedure, shortened: as §1
# Proteus vulgaris = experiment: MIC against Gram-negative bacteria: Proteus vulgaris; conditions: 5×10^5 CFU/mL; for MIC against P. vulgaris: Proteus vulgaris
# Procedure, shortened: as §1
# Serratia marcescens = experiment: MIC against Gram-negative bacteria: Serratia marcescens; conditions: 5×10^5 CFU/mL; for MIC against S. marcescens: Serratia marcescens
# Procedure, shortened: as §1
# [1] = 10 h cultivation at 37° C., two-fold serial dilution
substance,measurement,setting,value
PRT869 (CKCNLHATVCVYDNSKLTCECEHNTTGPDCGKCKKNYQGRPWSPGSYLPIPKGTANTCIP; listed as Homo sapiens),MIC,E. coli DH5α,12.5 µg/mL
same,MIC (μg/mL) E. coli BL21,E. coli BL21; 10 h cultivation at 37° C.,25 µg/mL
same,MIC (μg/mL) P. aeruginosa,Pseudomonas aeruginosa; 10 h cultivation at 37° C.,12.5 µg/mL
same,MIC (μg/mL) K. pneumonia,Klebsiella pneumonia; 10 h cultivation at 37° C.,12.5 µg/mL
same,MIC (μg/mL) E. cloacae,Enterobacter cloacae; 10 h cultivation at 37° C.,12.5 µg/mL
same,MIC (μg/mL) A. hydrophila,Aeromonas hydrophila; 10 h cultivation at 37° C.,12.5 µg/mL
same,MIC (μg/mL) C. diversus,Citrobacter diversus; 10 h cultivation at 37° C.,12.5 µg/mL
same,MIC (μg/mL) M. catarrhalis,Moraxella catarrhalis; 10 h cultivation at 37° C.,12.5 µg/mL
same,MIC (μg/mL) P. mirabilis,Proteus mirabilis; 10 h cultivation at 37° C.,12.5 µg/mL
same,MIC (μg/mL) P. vulgaris,Proteus vulgaris; 10 h cultivation at 37° C.,12.5 µg/mL
same,MIC (μg/mL) S. marcescens,Serratia marcescens; 10 h cultivation at 37° C.,50 µg/mL
PRT256 (CHLHARCVSQEGVARCRCLDGFEGDGFSC; listed as Homo sapiens),MIC,E. coli DH5α,25 µg/mL
same,MIC (μg/mL) E. coli BL21,E. coli BL21; 10 h cultivation at 37° C.,12.5 µg/mL
same,MIC (μg/mL) P. aeruginosa,Pseudomonas aeruginosa; 10 h cultivation at 37° C.,25 µg/mL
same,MIC (μg/mL) K. pneumonia,Klebsiella pneumonia; 10 h cultivation at 37° C.,12.5 µg/mL
same,MIC (μg/mL) E. cloacae,Enterobacter cloacae; 10 h cultivation at 37° C.,25 µg/mL
same,MIC (μg/mL) A. hydrophila,Aeromonas hydrophila; 10 h cultivation at 37° C.,12.5 µg/mL
same,MIC (μg/mL) C. diversus,Citrobacter diversus; 10 h cultivation at 37° C.,25 µg/mL
same,MIC (μg/mL) M. catarrhalis,Moraxella catarrhalis; 10 h cultivation at 37° C.,12.5 µg/mL
same,MIC (μg/mL) P. mirabilis,Proteus mirabilis; 10 h cultivation at 37° C.,25 µg/mL
same,MIC (μg/mL) P. vulgaris,Proteus vulgaris; 10 h cultivation at 37° C.,12.5 µg/mL
same,MIC (μg/mL) S. marcescens,Serratia marcescens; 10 h cultivation at 37° C.,25 µg/mL
PRT1158 (IQTSCESFPLRNNATCKKCEKDYPCSCISGFTEKNCE; listed as Homo sapiens),MIC,E. coli DH5α,25 µg/mL
same,MIC E. coli BL21,E. coli BL21; [1],12.5 µg/mL
same,MIC P. aeruginosa,Pseudomonas aeruginosa; [1],25 µg/mL
same,MIC K. pneumonia,Klebsiella pneumonia; [1],50 µg/mL
same,MIC E. cloacae,Enterobacter cloacae; [1],12.5 µg/mL
same,MIC A. hydrophila,Aeromonas hydrophila; [1],50 µg/mL
same,MIC C. diversus,Citrobacter diversus; [1],12.5 µg/mL
same,MIC M. catarrhalis,Moraxella catarrhalis; [1],50 µg/mL
same,MIC P. mirabilis,Proteus mirabilis; [1],12.5 µg/mL
same,MIC P. vulgaris,Proteus vulgaris; [1],50 µg/mL
same,MIC S. marcescens,Serratia marcescens; [1],25 µg/mL
PRT1258 (GRTCIETCAVNNGGCDRTCKDTATGVRCSCPVGFTLQPD; listed as Homo sapiens),MIC,E. coli DH5α,12.5 µg/mL
same,MIC against E. coli BL21,"E. coli BL21; 96-well plate, 37° C., 10 h",25 µg/mL
same,MIC against P. aeruginosa,"Pseudomonas aeruginosa; 96-well plate, 37° C., 10 h",50 µg/mL
same,MIC against K. pneumonia,"Klebsiella pneumonia; 96-well plate, 37° C., 10 h",25 µg/mL
same,MIC against E. cloacae,"Enterobacter cloacae; 96-well plate, 37° C., 10 h",12.5 µg/mL
same,MIC against A. hydrophila,"Aeromonas hydrophila; 96-well plate, 37° C., 10 h",25 µg/mL
same,MIC against C. diversus,"Citrobacter diversus; 96-well plate, 37° C., 10 h",50 µg/mL
same,MIC against M. catarrhalis,"Moraxella catarrhalis; 96-well plate, 37° C., 10 h",12.5 µg/mL
same,MIC against P. mirabilis,"Proteus mirabilis; 96-well plate, 37° C., 10 h",50 µg/mL
same,MIC against P. vulgaris,"Proteus vulgaris; 96-well plate, 37° C., 10 h",25 µg/mL
same,MIC against S. marcescens,"Serratia marcescens; 96-well plate, 37° C., 10 h",12.5 µg/mL
PRT1307 (HECPGGAETPCNGHGTCLDGMDRNGTCVCQENFRGSACQ; listed as Homo sapiens),MIC,E. coli DH5α,12.5 µg/mL
same,MIC against E. coli BL21,"E. coli BL21; 96-well plate, 37° C., 10 h",50 µg/mL
same,MIC against P. aeruginosa,"Pseudomonas aeruginosa; 96-well plate, 37° C., 10 h",12.5 µg/mL
same,MIC against K. pneumonia,"Klebsiella pneumonia; 96-well plate, 37° C., 10 h",50 µg/mL
same,MIC against E. cloacae,"Enterobacter cloacae; 96-well plate, 37° C., 10 h",100 µg/mL
same,MIC against A. hydrophila,"Aeromonas hydrophila; 96-well plate, 37° C., 10 h",50 µg/mL
same,MIC against C. diversus,"Citrobacter diversus; 96-well plate, 37° C., 10 h",12.5 µg/mL
same,MIC against M. catarrhalis,"Moraxella catarrhalis; 96-well plate, 37° C., 10 h",50 µg/mL
same,MIC against P. mirabilis,"Proteus mirabilis; 96-well plate, 37° C., 10 h",25 µg/mL
same,MIC against P. vulgaris,"Proteus vulgaris; 96-well plate, 37° C., 10 h",12.5 µg/mL
same,MIC against S. marcescens,"Serratia marcescens; 96-well plate, 37° C., 10 h",25 µg/mL
PRT254 (PCLEGGTCILSPKGASCNCPHPYTGDRCE; listed as Homo sapiens),MIC,E. coli DH5α,25 µg/mL
same,MIC (μg/mL) E. coli BL21,E. coli BL21; 10 h cultivation at 37° C.,12.5 µg/mL
same,MIC (μg/mL) P. aeruginosa,Pseudomonas aeruginosa; 10 h cultivation at 37° C.,12.5 µg/mL
same,MIC (μg/mL) K. pneumonia,Klebsiella pneumonia; 10 h cultivation at 37° C.,12.5 µg/mL
same,MIC (μg/mL) E. cloacae,Enterobacter cloacae; 10 h cultivation at 37° C.,12.5 µg/mL
same,MIC (μg/mL) A. hydrophila,Aeromonas hydrophila; 10 h cultivation at 37° C.,25 µg/mL
same,MIC (μg/mL) C. diversus,Citrobacter diversus; 10 h cultivation at 37° C.,12.5 µg/mL
same,MIC (μg/mL) M. catarrhalis,Moraxella catarrhalis; 10 h cultivation at 37° C.,25 µg/mL
same,MIC (μg/mL) P. mirabilis,Proteus mirabilis; 10 h cultivation at 37° C.,12.5 µg/mL
same,MIC (μg/mL) P. vulgaris,Proteus vulgaris; 10 h cultivation at 37° C.,12.5 µg/mL
same,MIC (μg/mL) S. marcescens,Serratia marcescens; 10 h cultivation at 37° C.,12.5 µg/mL
PRT736 (DVNECAEEGYCSQGCTNSEGAFQCWCETGYELRPDRRSCK; listed as Homo sapiens),MIC,E. coli DH5α,12.5 µg/mL
same,MIC E. coli BL21,"E. coli BL21; 96-well plate, 37° C., 10 h",25 µg/mL
same,MIC P. aeruginosa,"Pseudomonas aeruginosa; 96-well plate, 37° C., 10 h",50 µg/mL
same,MIC K. pneumonia,"Klebsiella pneumonia; 96-well plate, 37° C., 10 h",50 µg/mL
same,MIC E. cloacae,"Enterobacter cloacae; 96-well plate, 37° C., 10 h",50 µg/mL
same,MIC A. hydrophila,"Aeromonas hydrophila; 96-well plate, 37° C., 10 h",25 µg/mL
same,MIC C. diversus,"Citrobacter diversus; 96-well plate, 37° C., 10 h",12.5 µg/mL
same,MIC M. catarrhalis,"Moraxella catarrhalis; 96-well plate, 37° C., 10 h",25 µg/mL
same,MIC P. mirabilis,"Proteus mirabilis; 96-well plate, 37° C., 10 h",12.5 µg/mL
same,MIC P. vulgaris,"Proteus vulgaris; 96-well plate, 37° C., 10 h",25 µg/mL
same,MIC S. marcescens,"Serratia marcescens; 96-well plate, 37° C., 10 h",50 µg/mL
